Where two headings read alike, the source gives them in different places.
Assays:
P. aeruginosa ATCC 27853 = assay: Antibacterial MIC, double-dilution method; assay type: cell-based; conditions: Pseudomonas aeruginosa, ATCC27853
Method: (§1) MIC values were determined against a variety of Gram-positive (strains A-D) and Gram-negative (E-J) bacterial and mycobacterial (K) strains using the double-dilution method, as previously published. Preliminary screening was performed using 500 μM of each compound.

E. coli MC1061 = assay: Antibacterial MIC, double-dilution method; assay type: cell-based; conditions: Escherichia coli, strain G, Gram-negative, read-out: MIC
Method: as §1

[1] = test system: L. monocytogenes ATCC 19115; assay: Antibacterial MIC, double-dilution method; assay type: cell-based; conditions: Listeria monocytogenes, ATCC19115, strain B, Gram-positive, read-out: MIC
Method: as §1

B. subtilis 168 = assay: Antibacterial MIC, double-dilution method; assay type: cell-based; conditions: Bacillus subtilis, strain A, Gram-positive
Method: as §1

E. cloacae ATCC 13047 = assay: Antibacterial MIC, double-dilution method; assay type: cell-based; conditions: Enterobacter cloacae, ATCC13047
Method: as §1

MRSA = assay: Antibacterial MIC, double-dilution method; assay type: cell-based; conditions: Staphylococcus aureus, strain C, Gram-positive, read-out: MIC
Method: as §1

VRE = assay: Antibacterial MIC, double-dilution method; assay type: cell-based; conditions: Enterococcus, strain D, Gram-positive, read-out: MIC
Method: as §1

A. baumannii ATCC 19606 = assay: Antibacterial MIC, double-dilution method; assay type: cell-based; conditions: Acinetobacter baumannii, ATCC19606
Method: as §1

M. smegmatis MC2-155 = assay: Antibacterial MIC, double-dilution method; assay type: cell-based; conditions: Mycolicibacterium smegmatis, MC2155, strain K, mycobacterial, read-out: MIC
Method: as §1

K. pneumoniae ATCC 27736 = assay: Antibacterial MIC, double-dilution method; assay type: cell-based; conditions: Klebsiella pneumoniae, ATCC27736
Method: as §1

S. enterica ATCC 14028 = assay: Antibacterial MIC, double-dilution method; assay type: cell-based; conditions: Salmonella enterica, ATCC14028, strain J, Gram-negative, read-out: MIC
Method: as §1

[2] = test system: all bacterial strains tested; assay: Antibacterial MIC, summary over the panel; assay type: cell-based; conditions: read-out: MIC, span over all bacterial strains tested
Method: as §1

C. albicans ATCC 1003 = assay: Antifungal MIC, CLSI M27-A3 microbroth dilution; assay type: cell-based, Candida albicans; conditions: Candida albicans, ATCC1003, read-out: MIC
Method: (§2) In vitro MIC testing was performed according to the CLSI M27-A3 standard microbroth dilution methodology for the susceptibility testing of yeasts with minor modifications.

C. albicans ATCC 10231 = assay: Antifungal MIC, CLSI M27-A3 microbroth dilution; assay type: cell-based, Candida albicans; conditions: Candida albicans, ATCC10231, C. albicans ATCC 10231, resistant to FLC, ITC, and VOR, read-out: MIC
Method: as §2

C. albicans ATCC 1237 = assay: Antifungal MIC, CLSI M27-A3 microbroth dilution; assay type: cell-based, Candida albicans; conditions: Candida albicans, ATCC1237, C. albicans ATCC 1237, resistant to FLC, ITC, and VOR, read-out: MIC
Method: as §2

C. albicans ATCC 2876 = assay: Antifungal MIC, CLSI M27-A3 microbroth dilution; assay type: cell-based, Candida albicans; conditions: Candida albicans, ATCC2876, C. albicans ATCC 2876, susceptible to FLC, ITC, and VOR, read-out: MIC
Method: as §2

C. albicans ATCC 90819 = assay: Antifungal MIC, CLSI M27-A3 microbroth dilution; assay type: cell-based, Candida albicans; conditions: Candida albicans, ATCC90819, C. albicans ATCC 90819, resistant to FLC, ITC, and VOR, read-out: MIC
Method: as §2

C. albicans ATCC 64124 = assay: Antifungal MIC, CLSI M27-A3 microbroth dilution; assay type: cell-based, Candida albicans; conditions: Candida albicans, ATCC64124, C. albicans ATCC 64124, resistant to FLC, ITC, and VOR, read-out: MIC
Method: as §2

C. albicans ATCC 2310 = assay: Antifungal MIC, CLSI M27-A3 microbroth dilution; assay type: cell-based, Candida albicans; conditions: Candida albicans, ATCC2310, C. albicans ATCC 2310, susceptible to FLC, ITC, and VOR, read-out: MIC
Method: as §2

[3] = test system: C. albicans strains (panel of seven); assay: Antifungal MIC, summary over the panel; assay type: cell-based, Candida albicans; conditions: against all fungal strains tested
Method: In vitro MIC testing was performed according to the CLSI M27-A3 standard microbroth dilution methodology for the susceptibility testing of yeasts with minor modifications. […] MIC values were read visually for all tested compounds, and the endpoint was determined as the minimum concentration of compound that yielded complete inhibition relative to growth control.

[4] = strain I, Gram-negative, range 0.5 to 500 μM, read-out: MIC
[5] = strain F, Gram-negative, range 0.5 to 500 μM, read-out: MIC
[6] = strain E, Gram-negative, range 0.5 to 500 μM, read-out: MIC
[7] = strain H, Gram-negative, range 0.5 to 500 μM, read-out: MIC

Structure (SMILES) | MIC (P. aeruginosa ATCC 27853; [4]) [µM] | MIC (E. coli MC1061; converted from μM) [µg/mL] | MIC (E. coli MC1061; range 0.5 to 500 μM) [µM] | MIC ([1]; converted from μM) [µg/mL] | MIC ([1]; range 0.5 to 500 μM) [µM] | MIC (B. subtilis 168; converted from μM) [µg/mL] | MIC (B. subtilis 168; range 0.5 to 500 μM) [µM] | MIC (E. cloacae ATCC 13047; [5]) [µM] | MIC (MRSA; converted from μM) [µg/mL] | MIC (MRSA; range 0.5 to 500 μM) [µM] | MIC (VRE; converted from μM) [µg/mL] | MIC (VRE; range 0.5 to 500 μM) [µM] | MIC (A. baumannii ATCC 19606; [6]) [µM] | MIC (M. smegmatis MC2-155; converted from μM) [µg/mL] | MIC (M. smegmatis MC2-155; range 0.5 to 500 μM) [µM] | MIC (K. pneumoniae ATCC 27736; [7]) [µM] | MIC (S. enterica ATCC 14028; converted from μM) [µg/mL] | MIC (S. enterica ATCC 14028; range 0.5 to 500 μM) [µM] | further results
CC1(C)S[C@@H]2[C@H](NC(=O)[C@H](N)c3ccccc3)C(=O)N2[C@H]1C(=O)O [AMP, ampicillin, reference compound] | > 250 | > 92.8 | > 250 | 92.8 | 250 | > 92.8 | > 250 | > 250 | 92.8 | 250 | 92.8 | 250 | > 250 | > 92.8 | > 250 | > 250 | 92.8 | 250 | MIC (P. aeruginosa ATCC 27853): > 92.8 µg/mL; MIC (E. cloacae ATCC 13047): > 92.8 µg/mL; MIC (A. baumannii ATCC 19606): > 92.8 µg/mL; MIC (K. pneumoniae ATCC 27736): > 92.8 µg/mL; MIC [2]: ≥ 250 µM
Cl.N=C(N)N/N=C/c1ccc(-c2ccc(/C=N/Nc3ccccc3Br)cc2)cc1 [Compound 7Ab, (E)-2-((4′-((E and Z)-(2-(2-Bromophenyl)hydrazono)methyl)-[1,1′-biphenyl]-4-yl)methylene)hydrazine-1-carboximidamide monohydrochloride] | > 500 | > 235 | > 500 | 0.9 | 2 | > 235 | > 500 | > 500 | 0.9 | 2 | 0.9 | 2 | > 500 | 1.8 | 3.9 | > 500 | > 235 | > 500 | melting point: > 380 °C; MIC (C. albicans ATCC 1003; C. albicans ATCC 1003, converted from μg/mL): 4.1 µM; MIC (C. albicans ATCC 1003): 2 µg/mL; MIC (C. albicans ATCC 10231; converted from μg/mL): 4.1 µM; MIC (C. albicans ATCC 10231): 2 µg/mL; MIC (C. albicans ATCC 1237; converted from μg/mL): 8.3 µM; MIC (C. albicans ATCC 1237): 3.9 µg/mL; MIC (C. albicans ATCC 2876; converted from μg/mL): 8.3 µM; MIC (C. albicans ATCC 2876): 3.9 µg/mL; MIC (C. albicans ATCC 90819; converted from μg/mL): 8.3 µM; MIC (C. albicans ATCC 90819): 3.9 µg/mL; MIC (C. albicans ATCC 64124; converted from μg/mL): 8.3 µM; MIC (C. albicans ATCC 64124): 3.9 µg/mL; MIC (C. albicans ATCC 2310; converted from μg/mL): 8.3 µM; MIC (C. albicans ATCC 2310): 3.9 µg/mL; MIC (P. aeruginosa ATCC 27853; strain I, Gram-negative, converted from μM, read-out: MIC): > 235 µg/mL; MIC (E. cloacae ATCC 13047; strain F, Gram-negative, converted from μM, read-out: MIC): > 235 µg/mL; MIC (A. baumannii ATCC 19606; strain E, Gram-negative, converted from μM, read-out: MIC): > 235 µg/mL; MIC (K. pneumoniae ATCC 27736; strain H, Gram-negative, converted from μM, read-out: MIC): > 235 µg/mL; antifungal activity in words [3]: excellent antifungal activities
